Data reported in article PMC9182007, “Statistical Methods in the Study of Protein Binding and Its Relationship to Drug Bioavailability in Breast Milk” (Molecules, 2022).
Where two headings read alike, the source gives them in different places.

Tests used:
[1] = biological target: T1, bovine serum albumin (BSA) (Bos taurus, UniProt P02769); assay: NP TLC on plates impregnated with bovine serum albumin; type: binding; conditions: for NP (Rf value from the NP plate impregnated with 2 mg/mL BSA solution): Table S8, external group; for NP (Rf, BSA-impregnated NP plate): Table S3, NP plate impregnated with 2 mg/mL BSA, pH 7.4 mobile phase
T1 construct: purchased Sigma Aldrich

[2] = biological target: T1, bovine serum albumin (BSA); assay: RP TLC on plates impregnated with bovine serum albumin; type: binding; conditions: for RP (Rf value from the RP plate impregnated with 2 mg/mL BSA solution): Table S8, external group; for RP (Rf, BSA-impregnated RP plate): Table S4, RP plate impregnated with 2 mg/mL BSA, pH 7.4 mobile phase
[3] = NP TLC on non-impregnated control plates; type: physicochemical; conditions: for CNP (Rf value from the non-impregnated NP plate, control): Table S8, external group; for CNP (Rf, control NP plate): Table S3, non-impregnated NP plate, acetonitrile/acetate buffer pH 7.4/methanol 60:20:20
[4] = RP TLC on non-impregnated control plates; type: physicochemical; conditions: for CRP (Rf value from the non-impregnated RP plate, control): Table S8, external group; for CRP (Rf, control RP plate): Table S4, non-impregnated RP plate, acetonitrile/acetate buffer pH 7.4/methanol 60:20:20
[5] = HPLC on immobilized artificial membrane column (HPLCIAM); type: physicochemical; conditions: for log kIAM / kIAM: Table S9, external group; for log k IAM: Table S5, IAM column, pH 7.4; for k IAM: Table S5, retention factor, IAM column, phosphate buffer pH 7.4/acetonitrile 80:20
[6] = biological target: T2, human serum albumin (HSA) (Homo sapiens, UniProt P02768); conditions: for k HSA: Table S5, retention factor, HSA column, pH 7.4, 25 degrees Celsius
[7] = cited from earlier work
[8] = test system: plasma protein; conditions: ref DrugBank [7], cited from earlier work
[9] = ref DrugBank [7], cited from earlier work
[10] = biological target: T2, human serum albumin (HSA); assay: in vitro; conditions: immobilized hsa column, pH 7.4
[11] = Milk-to-plasma (M/P) drug concentration ratio obtained in vivo, from literature; design: species or system human; conditions: Table S1, scale of drug penetration into milk 1-4
[12] = Table S6, external group (n = 38)
[13] = Table S6, external group (n = 38), given as fraction
[14] = Table S6, external group, coded 1/0
[15] = human, immobilized hsa column, pH 7.4
[16] = Table S1, milk/plasma drug concentration ratio, in vivo
[17] = Table S1, plasma protein binding given as fraction

T2 sequence (P02768 25-609): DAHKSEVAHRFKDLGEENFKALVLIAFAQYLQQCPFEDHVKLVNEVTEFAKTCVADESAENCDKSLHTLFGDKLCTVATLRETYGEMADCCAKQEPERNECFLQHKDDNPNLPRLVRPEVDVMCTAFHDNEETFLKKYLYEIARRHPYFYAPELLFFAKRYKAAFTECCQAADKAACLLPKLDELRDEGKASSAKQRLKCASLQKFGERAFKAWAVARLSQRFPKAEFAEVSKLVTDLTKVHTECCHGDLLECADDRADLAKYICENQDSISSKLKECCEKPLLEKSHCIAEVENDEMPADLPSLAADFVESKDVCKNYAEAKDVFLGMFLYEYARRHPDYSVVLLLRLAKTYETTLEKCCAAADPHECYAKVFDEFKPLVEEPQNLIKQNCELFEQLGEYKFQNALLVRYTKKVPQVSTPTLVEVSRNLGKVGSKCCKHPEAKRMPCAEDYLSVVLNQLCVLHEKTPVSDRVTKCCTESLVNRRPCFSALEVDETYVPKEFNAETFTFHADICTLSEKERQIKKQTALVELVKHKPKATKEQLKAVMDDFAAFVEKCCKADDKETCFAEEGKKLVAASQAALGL
T1 sequence (P02769 25-607): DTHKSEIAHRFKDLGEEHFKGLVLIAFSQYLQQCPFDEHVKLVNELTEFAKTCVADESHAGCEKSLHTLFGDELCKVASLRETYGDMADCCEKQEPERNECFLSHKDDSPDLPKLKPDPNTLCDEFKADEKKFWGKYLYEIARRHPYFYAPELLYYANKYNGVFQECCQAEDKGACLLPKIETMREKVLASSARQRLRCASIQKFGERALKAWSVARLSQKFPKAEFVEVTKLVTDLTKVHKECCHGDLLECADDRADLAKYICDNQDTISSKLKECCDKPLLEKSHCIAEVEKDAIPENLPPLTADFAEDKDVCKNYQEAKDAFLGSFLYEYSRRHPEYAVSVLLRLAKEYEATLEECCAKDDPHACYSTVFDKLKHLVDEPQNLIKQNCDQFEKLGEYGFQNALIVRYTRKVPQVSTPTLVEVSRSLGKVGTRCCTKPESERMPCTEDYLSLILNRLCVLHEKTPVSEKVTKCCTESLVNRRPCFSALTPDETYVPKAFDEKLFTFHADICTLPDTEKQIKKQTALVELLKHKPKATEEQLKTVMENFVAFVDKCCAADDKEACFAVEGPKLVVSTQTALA

Structure (SMILES): CCCCN1CCCCC1C(=O)Nc1c(C)cccc1C (stereo not drawn) [bupivacaine]
- NP (Rf value from the NP plate impregnated with 2 mg/mL BSA solution) [1]: 0.67
- RP (Rf value from the RP plate impregnated with 2 mg/mL BSA solution) [2]: 0.75
- CNP (Rf value from the non-impregnated NP plate, control) [3]: 0.67
- CRP (Rf value from the non-impregnated RP plate, control) [4]: 0.74
- log kIAM [5]: 0.48
- kHSA ([6]; Table S9, external group): 1.18
- log kHSA ([6]; Table S9, external group): 0.07
- M/P [7, 12]: 0.37
- PB [8, 13]: 0.95
- CNS+/- [9, 14]: 1

Structure (SMILES): CN(C)CCC=C1c2ccccc2COc2ccccc21 [doxepin]
- NP (Rf value from the NP plate impregnated with 2 mg/mL BSA solution) [1]: 0.31
- RP (Rf value from the RP plate impregnated with 2 mg/mL BSA solution) [2]: 0.54
- CNP (Rf value from the non-impregnated NP plate, control) [3]: 0.30
- kIAM [5]: 2.81
- log kIAM [5]: 0.45
- kHSA ([6]; Table S9, external group): 4.25
- log kHSA [6, 15]: 0.63
- M/P [7, 12]: 1.37
- PB [8, 13]: 0.76
- CNS+/- [9, 14]: 1

Structure (SMILES): CN1CCC[C@@H]1Cc1c[nH]c2ccc(CCS(=O)(=O)c3ccccc3)cc12 [eletriptan]
- kIAM [5]: 3.57
- log kIAM [5]: 0.55
- kHSA ([6]; Table S9, external group): 3.78
- log kHSA [6, 15]: 0.58
- M/P [7, 12]: 0.25
- CNS+/- [9, 14]: 1

Structure (SMILES): CC[C@@H](CO)NCCN[C@@H](CC)CO [ethambutol]
- NP (Rf value from the NP plate impregnated with 2 mg/mL BSA solution) [1]: 0.21
- RP (Rf value from the RP plate impregnated with 2 mg/mL BSA solution) [2]: 0.95
- CNP (Rf value from the non-impregnated NP plate, control) [3]: 0.19
- CRP (Rf value from the non-impregnated RP plate, control) [4]: 0.97
- kIAM [5]: 2.18
- log kIAM [5]: 0.34
- kHSA ([6]; Table S9, external group): 1.73
- log kHSA [6, 15]: 0.24
- M/P [7, 12]: 1.00
- CNS+/- [9, 14]: 0

Structure (SMILES): CCC(C)n1ncn(-c2ccc(N3CCN(c4ccc(OCC5COC(Cn6cncn6)(c6ccc(Cl)cc6Cl)O5)cc4)CC3)cc2)c1=O (stereo not drawn) [itraconazole]
- NP (Rf value from the NP plate impregnated with 2 mg/mL BSA solution) [1]: 0.97
- RP (Rf value from the RP plate impregnated with 2 mg/mL BSA solution) [2]: 0.84
- CNP (Rf value from the non-impregnated NP plate, control) [3]: 0.96
- CRP (Rf value from the non-impregnated RP plate, control) [4]: 0.86
- kIAM [5]: 6.15
- log kIAM [5]: 0.79
- kHSA ([6]; Table S9, external group): 9.65
- chromatographic logD [10]: 0.98
- M/P [7, 12]: 1.14
- PB [8, 13]: 1.00
- CNS+/- [9, 14]: 0

Structure (SMILES): O=C(c1ccccc1)c1ccc2n1CCC2C(=O)O (stereo not drawn) [ketorolac]
- NP (Rf value from the NP plate impregnated with 2 mg/mL BSA solution) [1]: 0.91
- RP (Rf value from the RP plate impregnated with 2 mg/mL BSA solution) [2]: 0.96
- CNP (Rf value from the non-impregnated NP plate, control) [3]: 0.92
- CRP (Rf value from the non-impregnated RP plate, control) [4]: 0.96
- kIAM [5]: 2.39
- log kIAM [5]: 0.38
- kHSA ([6]; Table S9, external group): 9.65
- chromatographic logD [10]: 0.98
- M/P [7, 12]: 0.03
- PB [8, 13]: 0.99
- CNS+/- [9, 14]: 1

Structure (SMILES): CC[C@@H](C(N)=O)N1CCCC1=O [levetiracetam]
- NP (Rf value from the NP plate impregnated with 2 mg/mL BSA solution) [1]: 0.92
- RP (Rf value from the RP plate impregnated with 2 mg/mL BSA solution) [2]: 0.92
- CNP (Rf value from the non-impregnated NP plate, control) [3]: 0.92
- CRP (Rf value from the non-impregnated RP plate, control) [4]: 0.92
- kIAM [5]: 1.62
- log kIAM [5]: 0.21
- kHSA ([6]; Table S9, external group): 0.07
- log kHSA ([6]; Table S9, external group): -1.16
- M/P [7, 12]: 1.00
- PB [8, 13]: 0.10
- CNS+/- [9, 14]: 1

Structure (SMILES): CCC[C@@H]1C[C@@H](C(=O)N[C@@H]([C@H]2O[C@H](SC)[C@H](O)[C@@H](O)[C@H]2O)[C@@H](C)O)N(C)C1 [lincomycin]
- NP (Rf value from the NP plate impregnated with 2 mg/mL BSA solution) [1]: 0.91
- CNP (Rf value from the non-impregnated NP plate, control) [3]: 0.91
- kIAM [5]: 3.89
- log kIAM [5]: 0.59
- kHSA ([6]; Table S9, external group): 0.82
- chromatographic logD [10]: -0.08
- M/P [7, 12]: 0.15
- PB [8, 13]: 0.70
- CNS+/- [9, 14]: 0

Structure (SMILES): Nc1ccc(O)c(C(=O)O)c1 [mesalazine]
- RP (Rf value from the RP plate impregnated with 2 mg/mL BSA solution) [2]: 0.97
- CRP (Rf value from the non-impregnated RP plate, control) [4]: 0.99
- kIAM [5]: 1.28
- log kIAM [5]: 0.11
- kHSA ([6]; Table S9, external group): 0.18
- chromatographic logD [10]: -0.73
- M/P [7, 12]: 2.69
- PB [8, 13]: 0.43
- CNS+/- [9, 14]: 0

Structure (SMILES): CCOC(=O)C1=C(C)NC(C)=C(C(=O)OC)C1c1cccc([N+](=O)[O-])c1 (stereo not drawn) [nitrendipine]
- NP (Rf value from the NP plate impregnated with 2 mg/mL BSA solution) [1]: 0.97
- RP (Rf value from the RP plate impregnated with 2 mg/mL BSA solution) [2]: 0.86
- CNP (Rf value from the non-impregnated NP plate, control) [3]: 0.97
- CRP (Rf value from the non-impregnated RP plate, control) [4]: 0.86
- kIAM [5]: 2.98
- log kIAM [5]: 0.47
- kHSA ([6]; Table S9, external group): 3.55
- log kHSA ([6]; Table S9, external group): 0.55
- M/P [7, 12]: 0.30
- PB [8, 13]: 0.99
- CNS+/- [9, 14]: 0

Structure (SMILES): NC(=O)N1c2ccccc2CC(=O)c2ccccc21 [oxcarbamazepine]
- NP (Rf value from the NP plate impregnated with 2 mg/mL BSA solution) [1]: 0.90
- RP (Rf value from the RP plate impregnated with 2 mg/mL BSA solution) [2]: 0.91
- CNP (Rf value from the non-impregnated NP plate, control) [3]: 0.91
- CRP (Rf value from the non-impregnated RP plate, control) [4]: 0.91
- kIAM [5]: 2.26
- log kIAM [5]: 0.35
- kHSA ([6]; Table S9, external group): 0.40
- log kHSA ([6]; Table S9, external group): -0.40
- M/P [7, 12]: 0.50
- PB [8, 13]: 0.40
- CNS+/- [9, 14]: 1

Structure (SMILES): C[C@]12C=CC(=O)C=C1CC[C@@H]1[C@@H]2[C@@H](O)C[C@@]2(C)[C@H]1CC[C@]2(O)C(=O)CO [prednizolone]
- M/P code [11]: 1 (Code 1 corresponds to drugs with an M/P value <0.40—completely safe)
- NP (Rf, BSA-impregnated NP plate) [1]: 0.94
- RP (Rf, BSA-impregnated RP plate) [2]: 0.88
- CNP (Rf, control NP plate) [3]: 0.94
- CRP (Rf, control RP plate) [4]: 0.87
- log k IAM [5]: 0.45
- k IAM [5]: 2.84
- log k HSA ([6]; Table S5, HSA, pH 7.4): -0.28
- k HSA [6]: 0.52
- M/P [7, 16]: 0.13
- PB [8, 17]: 0.9

Structure (SMILES): CC(N)C12CC3CC(CC(C3)C1)C2 (stereo not drawn) [rimantadine]
- NP (Rf value from the NP plate impregnated with 2 mg/mL BSA solution) [1]: 0.92
- RP (Rf value from the RP plate impregnated with 2 mg/mL BSA solution) [2]: 0.95
- CNP (Rf value from the non-impregnated NP plate, control) [3]: 0.92
- CRP (Rf value from the non-impregnated RP plate, control) [4]: 0.95
- kIAM [5]: 1.91
- log kIAM [5]: 0.28
- kHSA ([6]; Table S9, external group): 0.16
- M/P [7, 12]: 2.00
- CNS+/- [9, 14]: 1

Structure (SMILES): CN[C@H]1CC[C@@H](c2ccc(Cl)c(Cl)c2)c2ccccc21 [sertraline]
- M/P code [11]: 4 (4 is M/P >1.20—dangerous)
- NP (Rf, BSA-impregnated NP plate) [1]: 0.53
- RP (Rf, BSA-impregnated RP plate) [2]: 0.48
- CNP (Rf, control NP plate) [3]: 0.53
- CRP (Rf, control RP plate) [4]: 0.49
- log k IAM [5]: 1.63
- k IAM [5]: 42.89
- k HSA [6]: 13.19
- log k HSA [6, 15]: 1.12
- M/P [7, 16]: 1.85
- PB [8, 17]: 0.98

Structure (SMILES): CCCc1nn(C)c2c(=O)[nH]c(-c3cc(S(=O)(=O)N4CCN(C)CC4)ccc3OCC)nc12 [sildenafil]
- NP (Rf, BSA-impregnated NP plate) [1]: 0.67
- RP (Rf, BSA-impregnated RP plate) [2]: 0.76
- CNP (Rf, control NP plate) [3]: 0.69
- CRP (Rf, control RP plate) [4]: 0.77
- log k IAM [5]: 1.15
- k IAM [5]: 14.26
- k HSA [6]: 1.62
- chromatographic logD [10]: 0.21
- PB [8, 17]: 0.96
- CNS+/- ([9]; Table S1, coded 1/0): 1
